System: PBMC
Test: ELISPOT (IFNγ, IL-5, IL-10, IL-17, IL-21) of PBMC expanded 14 days with Bla g extract, then stimulated with peptides or peptide pools
Format: cell-based, human
Set-up: key to Average Magnitude of Response: spot forming cells (SFC) per 10^6 PBMC; Response Rate per Subject: unit not given here
Details: for Average Magnitude of Response / Response Rate per Subject: non-redundant epitopes, sensitized donors
Method: PBMC Isolation and Cell Cultures: PBMC (peripheral blood mononuclear cells) were isolated from 450 mL (one unit) of blood by density gradient centrifugation as described and cryopreserved. For in vitro expansion of PBMC for peptide screening, cells were cultured in RPMI1640 (Omega Scientific)+5% human AB serum (Gemini Bioscience), GlutaMAX (Gibco), and penicillin/streptomycin (Omega Scientific) at 2×10^6 per mL, stimulated with 10 ug/mL Bla g extract (Greer), and incubated at 37° C. in 5% CO2. Every three days, IL-2 and IL-7 (10 U/mL) were added to the cultures. Cells were harvested for peptide screening at day 14.
ELISPOT Assays: Production of IFNγ, IL-5, IL-17, IL-10, and IL-21 (as representative of TH1, TH2, TH17, TR1, and […], respectively) in response to peptide stimulation was measured by ELISPOT as described previously. […] In brief, 1×10^5 cells per well were incubated with peptide, peptide pool, or Bla g extract (10, 5, and 10 ug/ml, respectively) on anti-lymphokine antibody coated ELISPOT plates (Millipore #MSIPS4510) for 22 hours. Subsequently, secondary anti-lymphokine antibodies were added and incubated for 2 hours, washed, and avidin-peroxidase complex added for 1 hour. Plates were washed and spots developed with 3-amino-9-ethylcarbazole (Sigma #A6926) and Vector Blue (Vector #SK-5300) for IFNγ/IL-5 and IL-10/IL-17 dual plates or TMB (Sigma #T0565) for single IL-21. Criteria for peptide pool positivity were at least 100 spot forming cells (SFC) per 10^6 PBMC, p<0.05, and stimulation index≥2. Criteria for peptide positivity were identical except with a threshold of 20 SFCs.
We synthetized overlapping peptide sets of 15 amino acids in length overlapping by 10 residues and covering the entire sequence of known Bla g Allergens, i.e. Bla g 1-7, 9 and 11, referred from hereafter collectively as BLAGA. A total of 809 BLAGA peptides were arranged in pools, encompassing on average 20 peptides.
To assess T cell reactivity, we utilized a strategy applied to the definition of epitopes from various allergen sources^15,16 utilizing in vitro stimulation with allergen extracts. Here, PBMC from each subject were stimulated in vitro with Bla g extract. After 14 days, pools of overlapping 15-mer peptides from the BLAGA were tested for responses, and positive pools deconvoluted to identify the specific epitopes. As readout, we utilized ELISPOT assays specific for IL-5, IFNγ, IL-10, IL-17 and IL-21, chosen as representative of TH2, TH1, TR1, TH17 and TFH reactivity, respectively.

[1] = Asthmatic (combines IA, MMA, SA)

Substance: Triosephosphate isomerase [TPI]
- % (percentage of subjects responding to given antigen) (AR): 6%
- SFC (mean magnitude of response) (AR): 13 SFC
- % (percentage of subjects responding to given antigen) [1]: 11%
- SFC (mean magnitude of response) [1]: 31 SFC
- % (percentage of subjects responding to given antigen) (Controls): 2%
- SFC (mean magnitude of response) (Controls): 17 SFC
- % (percentage of subjects responding to given antigen) (IA): 6%
- SFC (mean magnitude of response) (IA): 6 SFC
- % (percentage of subjects responding to given antigen) (MMA): 11%
- SFC (mean magnitude of response) (MMA): 83 SFC
- % (percentage of subjects responding to given antigen) (SA): 23%
- SFC (mean magnitude of response) (SA): 54 SFC
- T cell reactivity (cytokine release) to NBGA, in words (sensitized subjects, 2-week extract stimulation): Significant reactivity

Substance: VAISRYLGKQFGLSG (listed as Blattella germanica)
- Average Magnitude of Response: 94.9
- Response Rate per Subject: 8.6

Substance: VEALFLLMKADPSIH
- Average Magnitude of Response: 4.2
- Response Rate per Subject: 1.4

Substance: VFIGKFYTEFDMENN
- Average Magnitude of Response: 4.0
- Response Rate per Subject: 2.9

Substance: VIYVQIRFSVRRFHP
- Average Magnitude of Response: 15.1
- Response Rate per Subject: 2.9

Substance: VLEKLEAGFAKLAAS (listed as Blattella germanica)
- Average Magnitude of Response: 65.5
- Response Rate per Subject: 14.3

Substance: VLGLPAIKAWVAKRP
- Average Magnitude of Response: 48.5
- Response Rate per Subject: 14.3

Substance: VNQHKKAIEEDLKHF
- Average Magnitude of Response: 4.0
- Response Rate per Subject: 2.9

Substance: VPIMNIYSAFEFDPN
- Average Magnitude of Response: 18.5
- Response Rate per Subject: 4.3

Substance: VQKLQKEVDRLEDEL
- Average Magnitude of Response: 3.3
- Response Rate per Subject: 1.4

Substance: VVFDTGSSNLWVPSK
- Average Magnitude of Response: 4.7
- Response Rate per Subject: 4.3

Substance: VVRLQSWQSEMLRMN
- Average Magnitude of Response: 6.4
- Response Rate per Subject: 2.9

Substance: VYEVAIPDRLTLRVE
- Average Magnitude of Response: 3.4
- Response Rate per Subject: 2.9

Substance: WCNEEDHLRIISMQM
- Average Magnitude of Response: 13.1
- Response Rate per Subject: 7.1

Substance: WVCEHRWRQIFNMVG
- Average Magnitude of Response: 33.9
- Response Rate per Subject: 4.3

Substance: WVPSKKCHLTNIACL
- Average Magnitude of Response: 8.4
- Response Rate per Subject: 5.7

Substance: YFVAILDYLNHMAKE (listed as Blattella germanica)
- Average Magnitude of Response: 137.2
- Response Rate per Subject: 15.7

Substance: YHYDADENSKQKKWD
- Average Magnitude of Response: 3.7
- Response Rate per Subject: 2.9

Substance: YLGKQFGLSGKDDWE
- Average Magnitude of Response: 22.6
- Response Rate per Subject: 8.6

— patent US11505581B2, “Antigens and T cell epitopes from cockroach and methods of making and using same” (La Jolla Institute for Allergy and Immunology, priority 2015, dated 2022)
